These results are taken from US5661182A, “Method for lowering oxygen affinity of hemoglobin in redcell suspensions, in whole blood and in vivo” (Virginia Commonwealth University, priority 1995, dated 1997).

Entries after “also recorded” stand apart in the source; their conditions may differ.

For test [1], the target named is hemoglobin in fresh human red blood cells (Homo sapiens, UniProt P68871+P69905). Nature of the test: Oxygen equilibrium curves of fresh human red cell suspensions (p50). Format: cell-based. The settings on record: for potency in raising p50 / lowering the oxygen affinity: fresh human red cells, absence of albumin; for P50: effector 0.5 mM, pH 7.4, 37 °C; for inhibition of the allosteric effect by albumin: human red cells, 50 or 100 μM HSA. As for the experimental part: (§1) Human blood was collected on heparin from healthy nonsmoking donors. Bovine blood was provided by Pr Delpech, INA (Paris-Grignon). Red blood cells were washed three times in isotonic buffer, kept at 4° C., and used within 24 h after sampling. Hemoglobin Yakima, a high-oxygen-affinity variant [α2 β2 99 (G1) Asp>>His], was obtained from a known heterozygous carrier. Fresh Yakima red cells were processed in the same way as described above.
(§2) L3,5 and L3,4,5 were provided by Dr. Lalezari (Montefiore Hospital, New York); RSR-4 [2-[4-[[(3,5-dichloroanilino)carbonyl]methyl]phenoxy]-2-methylpropionic acid]and RSR13 [2-4-[[(3,5- dimethylanilino)carbonyl]methyl]phenoxy]-2-methylpropionic acid] have been synthesized following the procedure described in Randad et al. (J. Med. Chem. 34,752 (1991)). Human serum albumin (HSA), bovine serum albumin (BSA) and 4,4'diisothiocyanatostilbene-2,2'-disulfonate (DIDS) were purchased from Sigma (St. Louis, Mo.). Due to their low solubility in aqueous buffer, 10 mM stock solutions of the compounds were prepared in a slight exccess of sodium bicarbonate and back-titrated to pH 7.4. For example, RSR-4 or RSR-13 was dissolved at 60° C. in a 140 mM NaCl and 50 mM bis-Tris buffer at room temperature upon progressive addition of NaHCO3 to obtain 10 mM stock solutions. The pH was carefully adjusted to 7.4 after complete solubilization and before use of the solutions. Fresh solutions were prepared each week. Stock solutions of DIDS (1 mM) were prepared, in the dark, on the day of the experiments in a pH 7.4 buffer. Human serum albumin (defatted HSA) and bovine serum albumin (BSA) were prepared freshly as 1 mM stock solutions, pH 7.4. Equilibrium Measurements. The allosteric modulation of the effectors on freshly prepared solutions of hemoglobin or red cell suspensions was measured by the change in p50, the partial pressure of oxygen for half-saturation. Oxygen equilibrium curves (OEC) were carried out with the Hemox analyzer (TCS, Southampton, Pa.) under the following conditions: pH 7.4, 140 mM NaCl and 50 mM bis-Tris buffer at 37° C. In all experiments, the concentration of hemoglobin in the red cell suspensions was 20-25 μM hemoglobin tetramer (Hb4) as measured by Drabkin's method (cyanomethemoglobin) at the end of each recording. The final concentration of the allosteric effector in the cuvette was 0.5 mM, resulting in an effector/Hb4 ratio of 20 in the absence of albumin. OEC were also made in the same buffer containing 12.5, 25, 50, and 100 μM HSA (for human red cell suspensions) or BSA (for bovine cell suspensions). The serum albumin experiments were carried out with traces of an antifoaming agent. This agent has no deleterious effect on the red cell suspensions. The molar ratio of albumin to tetrameric hemoglobin was varied from 0.5 (at 12.5 μM HSA) to 4 (at 100 μM HSA); in whole blood this ratio is approximately 0.3 (0.7 mM albumin plus plasma proteins/2.25 mM Hb4). Therefore, the concentration of albumin used in the present studies was always larger relative to tetrameric hemoglobin than that found in whole blood.
Equilibrium oxygen binding curves were also recorded for red cell suspensions (10% hematocrit) that had been reacted for 30 min in the dark at 37° C. with 20 μM DIDS, a specific inhibitor of the red cell membrane anion channel. Kinetic Experiments. The kinetics of the interaction between the effectors and intracellular hemoglobin were measured in the absence and presence of varying concentrations of HSA. The red cell suspensions were equilibrated under room air (pO2 =140 mmHg) at 37° C. in the optical cuvette of the Hemox analyzer, which provides a constant stirring of the suspensions. […] Changes in absorbance were recorded and stored on tape for further analyses. […]

Test [2] addresses intracellular hemoglobin, human red cells (Homo sapiens, UniProt P68871+P69905). Nature of the test: Kinetics of interaction between effectors and intracellular hemoglobin (absorbance at 560 nm) in human red cell suspensions. Format: cell-based. The settings on record: for ΔA560: effector 0.5 mM, room air. The procedure: Equilibrium oxygen binding curves were also recorded for red cell suspensions (10% hematocrit) that had been reacted for 30 min in the dark at 37° C. with 20 μM DIDS, a specific inhibitor of the red cell membrane anion channel. Kinetic Experiments. The kinetics of the interaction between the effectors and intracellular hemoglobin were measured in the absence and presence of varying concentrations of HSA. The red cell suspensions were equilibrated under room air (pO2 =140 mmHg) at 37° C. in the optical cuvette of the Hemox analyzer, which provides a constant stirring of the suspensions. […] Changes in absorbance were recorded and stored on tape for further analyses.
An increase in absorbance at 560 nm (εmax for deoxy-Hb in the visible spectrum) under room air indicates the formation of partially deoxygenated Hb in the red cells and a decreased oxygen affinity of Hb, provided that the pH is held constant.
Examples of these kinetic recordings are illustrated in FIG. 4. Two indices were calculated from the experimental values: ΔA560 is the difference in optical density from the base line to the plateau and t1/2 is […]. […]

The target of test [3] is hemoglobin in fresh bovine red blood cells (Bos taurus, UniProt P01966+P02070). The test can be described thus: Oxygen binding of fresh bovine red blood cells (p50). Format: cell-based. The settings on record: for RBC (p50): bovine RBC, effector 0.5 mM, pH 7.4, 37 °C. The procedure: as §1, §2
Bovine Red Cell Studies. Table 2 presents data for oxygen binding measurements for fresh bovine red blood cells and isolated Hb solutions on addition of the effectors L3,5, RSR-4, and RSR-13. The experimental conditions used were the same as described in conjunction with Table 1 for human red blood cells. The oxygen equilibrium curves for Hb solutions were made at pH 7.2, 100 mM NaCl and 50 mM bis-Tris buffer at 25° C. Catalase (20 μg/mL) and 50 μM EDTA were added to oppose oxidation of the hemes. The concentration of the effectors was 0.5 mM in all conditions. In Table 2, BSA is bovine serum albumin and P50 (mmHg) is the pO2 for 50% saturation.

In a further test the test system is hemoglobin. The test can be described thus: Comparison of allosteric effector strength (right shift of oxygen equilibrium curve). Format: biochemical. The settings on record: compounds of FIG. 1.
[4] abbreviates: human RBC pre-incubated 30 min with DIDS, no HSA.
Setting [5] is: human RBC suspension, 50 μM HSA.
[6] abbreviates: human RBC suspension, 100 μM HSA.
[7] abbreviates: time for half-ΔA560, effector 0.5 mM, 12.5 μM HSA, 37 °C.
[8] abbreviates: time for half-ΔA560, effector 0.5 mM, 50 μM HSA, 37 °C.
[9] abbreviates: time for half-ΔA560, effector 0.5 mM, 100 μM HSA, 37 °C.
The mark [10] stands for this setting: time for half-ΔA560, effector 0.5 mM, no HSA, 37 °C.

Sequence of hemoglobin in fresh bovine red blood cells (P01966 whole entry): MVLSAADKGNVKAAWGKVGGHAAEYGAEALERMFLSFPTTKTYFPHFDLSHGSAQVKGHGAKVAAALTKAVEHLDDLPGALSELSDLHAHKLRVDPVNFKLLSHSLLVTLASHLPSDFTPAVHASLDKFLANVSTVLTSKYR
Sequence of hemoglobin in fresh bovine red blood cells (P02070 whole entry): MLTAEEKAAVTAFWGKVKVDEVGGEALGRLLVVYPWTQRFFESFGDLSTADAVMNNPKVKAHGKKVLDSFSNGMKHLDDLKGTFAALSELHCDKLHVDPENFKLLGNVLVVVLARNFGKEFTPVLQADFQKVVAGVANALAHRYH
Sequence of hemoglobin in fresh human red blood cells (P69905 whole entry): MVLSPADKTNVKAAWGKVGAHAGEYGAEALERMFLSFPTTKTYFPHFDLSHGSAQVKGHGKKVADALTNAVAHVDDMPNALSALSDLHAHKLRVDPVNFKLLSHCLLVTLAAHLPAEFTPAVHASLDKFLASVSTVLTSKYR
Sequence of hemoglobin in fresh human red blood cells (P68871 whole entry): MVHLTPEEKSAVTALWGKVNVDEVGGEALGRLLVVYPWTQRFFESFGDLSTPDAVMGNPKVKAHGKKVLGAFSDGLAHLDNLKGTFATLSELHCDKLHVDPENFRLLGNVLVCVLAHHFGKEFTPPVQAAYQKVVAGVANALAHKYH
Sequence of intracellular hemoglobin, human red cells (P69905 whole entry): as the sequence (P69905 whole entry) above
Sequence of intracellular hemoglobin, human red cells (P68871 whole entry): as the sequence (P68871 whole entry) above

Turning to `CC(C)(Oc1ccc(NC(=O)Nc2cc(Cl)cc(Cl)c2)cc1)C(=O)O` [L3,5, reference compound], in test [1], the “potency in raising p50 / lowering the oxygen affinity” value is “comparable; also recorded: almost equally potent effectors; also recorded: L3,5≈RSR-4>RSR-13”. For the same compound, the P50 in test [1] (setting [4]) is 54 mm Hg; in test [1] (setting [5]) it was 32 mm Hg; in test [1] (setting [6]) it was 28 mm Hg; in test [1] (human RBC suspension, no HSA), 60 mm Hg. Also, the ΔA560 stood at 0.124 in test [2] (12.5 μM HSA, 37 °C); 0.058 in test [2] (50 μM HSA, 37 °C); 0.029 in test [2] (100 μM HSA, 37 °C); 0.181 in test [2] (no HSA, 37 °C). For the same compound, the t1/2 in test [2] (setting [7]) was found to be 1.54 min; in test [2] (setting [8]) it was 1.83 min; in test [2] (setting [9]), 1.92 min; in test [2] (setting [10]), 0.55 min. Also, the “RBC (p50)” value in test [3] (no BSA) was found to be 35 mmHg. The “order of potency in lowering the oxygen affinity” value in test [3] (bovine red cells) is given as “RSR-4>>L3,5>RSR-13”. Besides, the p50 shift relative to control at 500 µM in test [3] (bovine red cells, 0.5 mM) worked out at 30%. Besides, in the test with hemoglobin, the “allosteric effector strength” value is on record as “L3,5≈RSR-4>RSR-13; also recorded: much stronger allosteric effect”.
`Cc1cc(C)cc(NC(=O)Cc2ccc(OC(C)(C)C(=O)O)cc2)c1` [RSR-13]: the “potency in raising p50 / lowering the oxygen affinity” value in test [1] is on record as “weakest in reducing the oxygen affinity of Hb, relative to L3,5 or RSR-4; also recorded: L3,5≈RSR-4>RSR-13”. Moreover, the P50 came out at 34.0 mm Hg in test [1] (setting [5]); 32.6 mm Hg in test [1] (setting [6]); 37.8 mm Hg in test [1] (human RBC suspension, no HSA). Further, in test [1], the “inhibition of the allosteric effect by albumin” value is “much less affected by serum albumin, and its effect persists even in the presence of 100 1-M HSA”. Moreover, the “change in t1/2 upon addition of albumin” value in test [2] (HSA added) is “No change”. The ΔA560 in test [2] (50 μM HSA, 37 °C) is 0.082; in test [2] (100 μM HSA, 37 °C) it was 0.067; in test [2] (no HSA, 37 °C) it was 0.085. The t1/2 entry in test [2] (in the absence of albumin) was “over 2 min”; in test [2] (setting [8]), 2.3 min; in test [2] (setting [9]) it was 2.08 min; in test [2] (setting [10]), 2.32 min. Besides, the “RBC (p50)” value in test [3] (no BSA) was found to be 31 mmHg. Besides, in test [3] (bovine red cells), the “order of potency in lowering the oxygen affinity” value was “RSR-4>>L3,5>RSR-13”. Further, the p50 shift relative to control at 500 µM in test [3] (bovine red cells, 0.5 mM) is 15%. In addition, the “allosteric effector strength” value in the test on hemoglobin was “L3,5≈RSR-4>RSR-13”.
With `CC(C)(Oc1ccc(CC(=O)Nc2cc(Cl)cc(Cl)c2)cc1)C(=O)O` [RSR-4, 2-[4-[[(3,5-dichloroanilino)carbonyl]methyl]phenoxy]-2-methylpropionic acid], in test [1], the “potency in raising p50 / lowering the oxygen affinity” value was “comparable; also recorded: almost equally potent effectors; also recorded: L3,5≈RSR-4>RSR-13”. Besides, the P50 in test [1] (setting [4]) is recorded as 49 mm Hg; in test [1] (human RBC suspension, 12.5 μM HSA) it was 48.5 mm Hg; in test [1] (setting [5]), 44.0 mm Hg; in test [1] (setting [6]), 36 mm Hg; in test [1] (human RBC suspension, no HSA), 52.5 mm Hg. For the same compound, the “inhibition of the allosteric effect by albumin” value in test [1] was “less inhibited by albumin than the closely related compound L3,5; also recorded: much lower inhibition of RSR-4 by serum albumin than that observed with L3,5; also recorded: much less inhibited by 50 or 100 μM albumin than observed with L3,5”. Besides, the ΔA560 in test [2] (12.5 μM HSA, 37 °C) turned out to be 0.107; in test [2] (50 μM HSA, 37 °C), 0.086; in test [2] (100 μM HSA, 37 °C), 0.042; in test [2] (no HSA, 37 °C), 0.152. Besides, the t1/2 in test [2] (in the absence of albumin) turned out to be 1 min; in test [2] (setting [7]), 1.53 min; in test [2] (setting [8]), 1.27 min; in test [2] (setting [9]), 1.45 min; in test [2] (setting [10]), 1 min. Besides, the “RBC (p50)” value is 45 mmHg in test [3] (50 μM BSA) and 54 mmHg in test [3] (no BSA). Besides, the “order of potency in lowering the oxygen affinity” value in test [3] (bovine red cells) is listed as “RSR-4>>L3,5>RSR-13”. Also, the “effect on control p50” value in test [3] (bovine red cells, 0.5 mM, without and with 50 μM BSA) is “doubling of the control p50 and persists even in the presence of 50 μM BSA”. The “allosteric effector strength” value in the test with hemoglobin is “L3,5≈RSR-4>RSR-13”.
